In the supplement of paper PMC10307832:

How the values were obtained:
Experiment in all cases: relative viability (nuclei count vs DMSO), 5 days (fraction); higher = more cells survive
[1] = compound: C1/C(=C\C2=CC=CS2)/C(=O)/C(=C/C3=CC=CS3)/C1 + COc1cc2c(Oc3ccc(NC(=O)C4(C(=O)Nc5ccc(F)cc5)CC4)cc3F)ccnc2cc1OCCCN1CCOCC1 [Foretinib] (partner 0.25 µM)
In short: (§1)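 Relative viability divides the nuclei count in treated wells by that in vehicle wells. Lung cancer cell lines were seeded in 1536-well plates, dosed by pin tool the next day, and fixed and stained after 5 days in one step with final 0.05% Triton X-100, 1% formaldehyde and 1 ug/ml Hoechst. Dosing was a single drug or a fixed anchor-drug dose plus five library-drug doses (not always all listed) in √10 steps, and values are medians of duplicate plates imaged at 4×.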

[2] = compound: C1=CC(=CC=C1C2=CC(=C(S2)NC(=O)N)C(=O)N)F [TPCA-1] + CCNC(=O)c1noc(-c2cc(C(C)C)c(O)cc2O)c1-c1ccc(CN2CCOCC2)cc1 [Luminespib] (partner 0.01 µM)
In short: as §1

[3] = compound: C1=CC(=CC=C1C2=CC(=C(S2)NC(=O)N)C(=O)N)F [TPCA-1] + COc1cc2c(Oc3ccc(NC(=O)C4(C(=O)Nc5ccc(F)cc5)CC4)cc3F)ccnc2cc1OCCCN1CCOCC1 [Foretinib] (partner 0.25 µM)
In short: as §1

[4] = compound: C[C@]12O[C@H](C[C@]1(O)CO)n1c3ccccc3c3c4c(c5c6ccccc6n2c5c31)CNC4=O [Lestaurtinib] + NC(=O)Nc1cc(-c2cccc(F)c2)sc1C(=O)N[C@H]1CCCNC1 [AZD7762] (partner 0.2 µM)
In short: as §1

| Cell Line | relative viability ([1]; first compound 0.2 µM) | relative viability ([1]; first compound 0.6325 µM) | relative viability ([1]; first compound 2 µM) | relative viability ([1]; first compound 6.325 µM) | relative viability ([1]; first compound 20 µM) | relative viability ([2]; first compound 0.04 µM) | relative viability ([2]; first compound 0.1265 µM) | relative viability ([2]; first compound 0.4 µM) | relative viability ([2]; first compound 1.265 µM) | relative viability ([2]; first compound 4 µM) | relative viability ([3]; first compound 0.04 µM) | relative viability ([3]; first compound 0.1265 µM) | relative viability ([3]; first compound 0.4 µM) | relative viability ([3]; first compound 1.265 µM) | relative viability ([3]; first compound 4 µM) | relative viability ([4]; first compound 0.005 µM) | relative viability ([4]; first compound 0.01581 µM) | relative viability ([4]; first compound 0.05 µM) | relative viability ([4]; first compound 0.1581 µM) | relative viability ([4]; first compound 0.5 µM) |
| --- | --- | --- | --- | --- | --- | --- | --- | --- | --- | --- | --- | --- | --- | --- | --- | --- | --- | --- | --- | --- |
| NCI-H1437 | 1.31 | 1.3 | 1.25 | 1.1 | 1.23 | 1.04 | 1.14 | 1.03 | 1.12 | 1.2 | 1.31 | 1.4 | 1.25 | 1.32 | 1.41 | 1.13 | 1.2 | 0.941 | 1.12 | 0.945 |
| EKVX | 0.82 | 0.696 | 0.603 | 0.615 | 0.778 | 0.885 | 0.845 | 0.933 | 0.756 | 0.809 | 0.627 | 0.596 | 0.895 | 0.624 | 0.148 | 0.718 | – | 0.643 | 0.755 | 0.546 |
| NCI-H1651 | 0.797 | 0.815 | 0.785 | 0.671 | 0.692 | 0.839 | 0.979 | 0.835 | 0.915 | 1 | 0.862 | 0.656 | 0.801 | 0.794 | 0.735 | 0.447 | 0.503 | 0.349 | 0.558 | 0.318 |
| HCC-15 | 1.09 | 0.994 | 1.03 | 0.917 | 1.06 | 0.458 | 0.326 | 0.341 | 0.366 | 0.374 | 1.09 | 0.919 | 1.06 | 0.96 | 0.77 | 1.25 | 1.36 | 0.937 | 1.18 | 0.188 |
| LCLC-103H | 0.804 | 0.8 | 0.787 | 0.668 | 0.732 | 0.97 | 0.99 | 0.852 | 0.965 | 0.752 | 0.899 | 0.813 | 0.758 | 0.839 | 0.64 | 0.924 | 0.785 | 0.635 | 0.633 | 0.452 |
| NCI-H23 | 0.973 | 1.13 | 1.07 | 0.851 | 0.991 | 0.199 | 0.208 | 0.219 | 0.196 | 0.193 | 0.947 | 0.934 | 0.935 | 1.08 | 0.867 | 0.213 | 0.257 | 0.227 | 0.246 | 0.203 |
| NCI-H596 | 0.895 | 0.847 | 0.872 | 0.753 | 0.905 | 0.988 | 1.08 | 0.897 | 1.11 | 1.08 | 0.953 | 0.811 | 0.855 | 0.98 | 0.937 | 1.13 | 0.95 | 0.893 | 1.13 | 1.05 |
| NCI-H460 | 1.02 | 1.06 | 1.02 | 0.881 | 0.99 | 0.0339 | 0.0348 | 0.0261 | 0.0343 | 0.0263 | 1.05 | 0.918 | 1.07 | 1.05 | 0.857 | 0.651 | 0.765 | 0.757 | 1.31 | 0.645 |
| NCI-H2085 | 1.09 | 1.05 | 0.984 | 0.927 | 0.883 | 0.427 | 0.408 | 0.574 | 0.473 | 0.45 | 0.846 | 0.79 | 1.2 | 0.882 | 0.742 | 0.917 | 0.938 | 0.941 | 0.98 | 0.827 |
| PC-14 | 0.942 | 0.932 | 0.937 | 0.847 | 0.885 | 0.133 | 0.165 | 0.177 | 0.146 | 0.143 | 1.01 | 0.916 | 0.957 | 1.01 | 0.79 | 0.336 | 0.57 | 0.362 | 0.248 | 0.146 |
| HOP-62 | 1.08 | 1.07 | 1.07 | 0.922 | 1.09 | 0.98 | 0.924 | 0.93 | 0.893 | 0.812 | 1.19 | 1.09 | 1.17 | 1.06 | 1.06 | 0.56 | 0.657 | 0.323 | 0.609 | 0.313 |
| NCI-H2087 | 1.26 | 1.28 | 1.15 | 1.17 | 1.13 | 0.171 | 0.176 | 0.156 | 0.15 | 0.141 | 1.52 | 0.99 | 1.09 | 0.894 | 0.432 | 1.27 | 1.2 | 1.06 | 0.761 | 0.302 |
| NCI-H1793 | 0.754 | 0.629 | 0.783 | 0.579 | 0.625 | 0.173 | – | 0.142 | 0.142 | 0.134 | 0.72 | – | 0.647 | 0.559 | 0.263 | 0.406 | 0.485 | 0.357 | 0.422 | 0.303 |
| PC-3 [JPC-3] | 1.11 | 1.05 | 1.01 | 0.865 | 1.11 | 0.5 | 0.639 | 0.682 | 0.675 | 0.569 | 1.03 | 1.08 | 0.968 | 0.984 | 1.02 | 0.759 | 1.04 | 0.688 | 0.586 | 0.485 |
| H3255 | 0.847 | 1.09 | 1.1 | 0.819 | 0.83 | 0.696 | 0.893 | 0.836 | 0.822 | 0.622 | 0.825 | 0.876 | 0.821 | 0.541 | 0.514 | 0.961 | 0.945 | 0.866 | 0.879 | 0.543 |
| EMC-BAC-2 | 1.01 | 1.03 | 0.973 | 0.656 | 1.09 | 1.24 | 1.13 | 1.16 | 1.35 | 1.13 | 1.02 | 0.956 | 1.05 | 1.14 | 0.887 | 1.07 | 1.12 | 0.842 | 0.441 | 0.346 |
| SW 900 | 0.823 | 0.817 | 0.804 | 0.9 | 1.16 | 0.179 | 0.176 | 0.212 | 0.201 | 0.176 | 0.894 | 0.71 | 0.841 | 0.958 | 0.789 | 0.632 | 0.561 | 0.555 | 0.702 | 0.614 |
| CAL-12T | 1.34 | 1.02 | 1.09 | 0.981 | 1.03 | 0.462 | 0.351 | 0.196 | 0.294 | 0.194 | 1.21 | 0.989 | 1.15 | 1.08 | 0.716 | 0.573 | 0.813 | 0.557 | 0.599 | 0.54 |
| NCI-H650 | 1.02 | 0.926 | 0.933 | 0.945 | 0.999 | 0.858 | 0.788 | 0.849 | 0.499 | 0.328 | 1.01 | 0.947 | 1.03 | 0.729 | 0.858 | 0.939 | 1.07 | 0.706 | 0.687 | 0.302 |
| NCI-H1355 | 1.01 | 0.877 | 0.995 | 0.913 | 0.954 | 0.788 | 0.747 | 0.841 | 0.715 | 0.465 | 0.991 | 0.837 | 0.977 | 0.932 | 0.705 | 0.839 | 0.815 | 0.574 | 0.54 | 0.422 |
| NCI-H838 | 0.998 | 1.1 | 1.04 | 0.812 | 0.968 | 0.349 | 0.398 | 0.235 | 0.268 | 0.223 | 1.06 | 0.99 | 0.918 | 0.843 | 0.769 | 1.01 | 0.951 | 0.933 | 0.873 | 0.681 |
| LK-2 | 1.57 | 1.51 | 1.11 | 1.18 | 1.41 | 0.216 | 0.188 | 0.216 | 0.175 | 0.167 | 1.5 | 0.969 | 1.14 | 1.14 | 0.729 | 0.388 | 0.523 | 0.272 | 0.276 | 0.135 |
| NCI-H322M | 1 | 1.06 | 1.1 | 0.855 | 0.874 | 1 | 0.812 | 0.984 | 1.01 | 0.366 | 1.2 | 0.973 | 1.01 | 0.998 | 0.633 | 0.511 | 0.538 | – | 0.517 | 0.479 |
| NCI-H1395 | 0.992 | 0.945 | 1.18 | 0.861 | 1.01 | 0.762 | 0.695 | 0.647 | 0.709 | 0.644 | 1.05 | 1.01 | 0.975 | 0.96 | 0.823 | 0.385 | 0.405 | 0.407 | 0.384 | 0.325 |
| NCI-H441 | 1.11 | 0.913 | 1.15 | 0.867 | 0.927 | 0.448 | 0.414 | 0.386 | 0.297 | 0.19 | 0.487 | 0.856 | 0.841 | 0.834 | 0.668 | 1.17 | 1.39 | 1.04 | 1.01 | 0.743 |
